From patent US4994457A, “Antiinflammatory compositions and methods” (Pfizer Inc., priority 1987, dated 1991)
Where a name gives a salt, the structure may show the parent alone.

Columns and labels:
[1] = system: gastric mucosal damage of aspirin solutions in rats; settings: Lim et al. 1979; cited from earlier work
[2] = system: gastrointestinal ulcers induced by the subcutaneous injection of indomethacin; settings: Urishidani et al. 1977; cited from earlier work
[3] = system: Piroxicam Induced Gastric Lesions in Rats; assay: Protective effect of N-acetyl-L-methionine on piroxicam induced gastric lesions in rats; type: in vivo, CD strain (Sprague-Dawley), male; settings: for Lesions/Rat (X +/- SE): mean (SE)
Description: (§1) Adult male "specific pathogen free" rats weighing 140-160 grams of the CD strain (Sprague-Dawley) were obtained from Charles River Breeding Laboratories (Kingston, N.Y.). The animals were acclimated for approximately one week and tested when they reached a body weight of 200-225 grams. The rats were fasted for 16 hours and randomized into groups consisting of 10 animals which were normalized with regard to their average body weight.
(§2) Gastric ulcers were induced in the animals by orally dosing them with a single 120 mg/kg dose of piroxicam (ethanolamine salt) in 2 ml. of aqueous 0.1% methylcellulose (pH=6.8). Those animals receiving disodium 5'-guanylate separately received the second drug in an additional 2 ml. of the same medium at about the same time. Six and one-half hours later, the animals were sacrificed by cervical dislocation and autopsied. The stomachs were surgically removed, dissected along the greater curvature and rinsed with cold water. The stomachs were individually scored for both linear and punctate lesions. The total number of lesions was used for scoring purposes. The data obtained from each group of rats was analyzed after calculation of the mean number +/- the standard error of total gastric lesions. The values obtained were also compared to the controls which received only piroxicam by the two-tailed Student's T-Test for non-paired data.
By the procedure of the preceding Example, the protective effect of the N-acetyl-L-methionine on piroxicam induced gastric lesions in rats was determined.

[4] = system: Piroxicam-Induced Gastric Lesions in Rats; assay: Protective effect of disodium 5'-guanylate on piroxicam-induced gastric lesions in rats; type: in vivo, CD strain (Sprague-Dawley), male; settings: for Lesions/Rat (X +/- SE): mean (SE)
Description: as §1, §2

gastric ulcers in rats = settings: Tanaka et al. 1982, Kunimi et al. 1982; cited from earlier work
[5] = stated as background for single daily dosage; cited from earlier work

## CSCC[C@H](N)C(=O)O [methionine]
[1]
  effect on gastric mucosal damage of aspirin solutions: beneficial effect
[2]
  inhibition of gastrointestinal ulcers: inhibit gastrointestinal ulcers

## CSCC[C@H](NC(C)=O)C(=O)O [N-Acetyl-L-methionine, N-acetyl-L-methionine]
[3]; Rattus norvegicus, 6.5 h, oral, 120 mg/kg piroxicam ethanolamine salt, read-out: ED50 (dose of the N-acetylmethionine required to inhibit 50% of control gastric lesions)
  ED50: 100 to 333 mg/kg
[3]; oral 33 mg/kg, 50 rats, with 120 mg/kg piroxicam ethanolamine salt
  Lesions/Rat (X +/- SE): 6.9 (0.8) Lesions/Rat
[3]; oral 100 mg/kg, 40 rats, with 120 mg/kg piroxicam ethanolamine salt
  Lesions/Rat (X +/- SE): 3.9 (0.8) Lesions/Rat
[3]; oral 333 mg/kg, 20 rats, with 120 mg/kg piroxicam ethanolamine salt
  Lesions/Rat (X +/- SE): 3.5 (0.9) Lesions/Rat

## CN1C(C(=O)Nc2ccccn2)=C(O)c2ccccc2S1(=O)=O [Ethanolamine Salt of Piroxicam, 4-hydroxy-2-methyl-N-2-pyridinyl-2H-1,2-benzothiazine-3-carboxamide 1,1-dioxide, reference compound]
[4]; control: 120 mg/kg oral ethanolamine salt of piroxicam alone, 40 rats, 6.5 h
  Lesions/Rat (X +/- SE): 8.3 (0.9) Lesions/Rat
[3]; control: 120 mg/kg oral ethanolamine salt of piroxicam alone, 50 rats
  Lesions/Rat (X +/- SE): 8.0 (0.8) Lesions/Rat

## Nc1nc2c(ncn2[C@@H]2O[C@H](COP(=O)(O)O)[C@@H](O)[C@H]2O)c(=O)[nH]1 [Disodium 5'-Guanylate, guanosine 5'-monophosphate]
[4]; healthy fasted rat, oral
  reduction of piroxicam-induced gastric lesions: significantly reduces piroxicam-induced gastric lesions
[4]; oral 1.0 mg/kg, 20 rats, with 120 mg/kg piroxicam ethanolamine salt
  Lesions/Rat (X +/- SE): 8.1 (0.7) Lesions/Rat
[4]; oral 3.3 mg/kg, 20 rats, with 120 mg/kg piroxicam ethanolamine salt
  Lesions/Rat (X +/- SE): 5.8 (0.5) Lesions/Rat
[4]; oral 10.0 mg/kg, 30 rats, with 120 mg/kg piroxicam ethanolamine salt
  Lesions/Rat (X +/- SE): 4.6 (0.8) Lesions/Rat
[4]; oral 33.0 mg/kg, 40 rats, with 120 mg/kg piroxicam ethanolamine salt
  Lesions/Rat (X +/- SE): 3.9 (0.6) Lesions/Rat

## NCCC(=O)N[C@@H](Cc1cnc[nH]1)C(=O)O [L-carnosine]
Gastric ulcers in rats
  prevention of the exacerbation of gastric ulcers by certain antiinflammatory agents: not

## CC(=O)NCCC(=O)N[C@@H](Cc1c[nH]cn1)C(=O)O [N-acetyl-L-carnosine, N-(N-acetyl-beta-alanyl)-L-histidine]
Gastric ulcers in rats
  prevention of the exacerbation of gastric ulcers by certain antiinflammatory agents: not

## CC(=O)NCCC(=O)N[C@@H](Cc1c[nH]cn1)C(=O)O [aluminum salts of N-acetyl-L-carnosine, N-(N-acetyl-beta-alanyl)-L-histidine]
Gastric ulcers in rats
  prevention of the exacerbation of gastric ulcers by certain antiinflammatory agents: prevent the exacerbation of gastric ulcers

## CN1C(C(=O)Nc2ccccn2)=C(O)c2ccccc2S1(=O)=O [piroxicam, 4-hydroxy-2-methyl-N-2-pyridinyl-2H-1,2-benzothiazine-3-carboxamide 1,1-dioxide]
[5]
  in vivo half-life: long

## CC(=O)N[C@@H](CCC(N)=O)C(=O)O [aluminum salts of N-acetyl-L-glutamine, N-acetyl-L-glutamine]
Gastric ulcers in rats
  prevention of the exacerbation of gastric ulcers by certain antiinflammatory agents: prevent the exacerbation of gastric ulcers
